# Measurements: patent US20250326794A1, “ANTI-CANCER LEUCINE-RICH PEPTIDES AND USES THEREOF” (KING'S COLLEGE LONDON, priority 2019, published 2025)
# Read-outs that look alike come from different tables or passages of the source.
# Key:
# [1] = system: U2OS (human bone osteosarcoma)
# Source text: (§1) HMLER (human mammary endothelial cancer cells), HMLER-shEcad (human mammary endothelial cancer stem cells), and MCF-10A (healthy human mammary endothelial) cells were maintained in Mammary Epithelial Cell Growth Medium (MEGM) with supplements and growth factors: bovine pituitary extract (BPE), hydrocortisone, human epidermal growth factor (hEGF), insulin, and gentamicin/amphotericin-B. HEK293T (human embryonic kidney cell), and U2OS (Homo sapiens bone osteosarcoma) cells were maintained in Dulbecco's Modified Eagle's Medium (DMEM) with a final concentration of 10% fetal bovine serum. The cells were grown in T75 flask at 310 K in a humidified atmosphere containing 5% CO2.
# (§2) The colourimetric MTT (3-(4,5-dimethylthiazol-2-yl)-2,5-diphenyltetrazolium bromide) assay was used to determine the toxicity of the anticancer peptides and conventional anticancer drugs. 5×10^3 cells were seeded in each well of a 96-well microplate. The cells were incubated overnight. Elevated concentrations of the compounds (0, 0.1, 0.2, 0.4, 0.8, 1.6, 3.1, 6.3, 12.5, 25, 50 and 100 μM) were added and incubated for 72 hr with a total volume 200 μL. The stock solutions of the compounds were prepared as 5 mM solutions in DMSO and diluted using media or in pure water. The final concentration of DMSO in each well was either 0.5% or 0% and this amount was present in the untreated control. After 72 hr, 20 μL of a 4 mg/mL solution of MTT in PBS was added to each well, and the plate was incubated for an additional 4 hr. The MEGM/MTT mixture was aspirated and 100 μL of DMSO was added to dissolve the resulting purple formazan crystals. The absorbance of the solutions in each well was read at 550 nm wavelength. Absorbance values were normalized to either DMSO-containing or non DMSO-containing control wells and plotted as concentration of test compound versus % cell viability. IC50 values were interpolated from the resulting dose dependent curves.
# (§3) The peptides were screened against several different human cell lines and their cytotoxicity were determined. Cell lines utilised include MCF-10A (human breast epithelial cell), HMLER (human breast cancer bulk cell), HMLER-shEcad (human breast cancer stem cell), HEK293T (human embryonic kidney cell), and U2OS (human bone osteosarcoma).
# [2] = Tryptophan fluorescent binding assay, POPC vesicles; settings: 50 μM peptide, PBS pH 7.4, lipid per peptide
# Protocol: (§4) In brief, 50 μM peptides were fixed and incubated with titrated POPC vesicles (black) or 3POPC/1POPG vesicles (grey) at concentrations of 0, 12.5, 25, 50, 100, 250, 500, 1000, 2500, and 5000 μM in phosphate buffered saline (1×, pH 7.4). The lipid concentration that causes 50% peptide binding was determined using a tryptophan fluorescent binding assay and the values are shown as lipid per peptide.
# (§5) The lipids 1-palmitoyl-2-oleoyl-sn-glycero-3-phosphocholine (POPC), 1-palmitoyl-2-oleoyl-snglycero-3-phospho-(1′-rac-glycerol) (POPG) were purchased from Avanti Polar Lipids and dissolved in chloroform. Large unilamellar vesicles (LUVs) were produced by extrusion through 100 nm pore filter using an extruder and filters purchased from Avanti Polar Lipids.
# (§6) Peptides (50 μM) and POPC/POPG LUVs (600 μM) were prepared in 10 mM phosphate buffer (pH 7.0). The solutions were incubated and measured after 60 minutes. Excitation was fixed at 280 nm (slit 9 nm) and emission was collected from 300 to 450 nm (slit 9 nm). The spectra were recorded using a Synergy H1 Hybrid Multi-Mode Reader (FIG. 3A) and Cytation™ 5 Cell Imaging Multi-Mode Reader (FIG. 2) from BioTek and were averaged over 3 scans.
# (§7) Table 3 illustrates the lipid concentration-induced 50% peptide binding onto a liposome. 50 μM peptide was fixed and incubated with titrated lipid (POPC vesicles or 3POPC/1POPG vesicles) at concentrations of 0, 12.5, 25, 50, 100, 250, 500, 1000, 2500, and 5000 μM in phosphate buffered saline (1×, pH 7.4). The lipid concentration that causes 50% peptide binding was determined using tryptophan fluorescent binding assay and the values are shown as lipid per peptide. †N-terminus is free, C-terminus: —W—NH2.
# [3] = system: HMLER (human breast cancer bulk cell); experiment: cells
# Source text: as §1, §2, §3
# [4] = system: HEK293T (human embryonic kidney cell); experiment: cells
# Source text: as §1, §2, §3
# [5] = system: HMLER-shEcad (human breast cancer stem cell); experiment: cells
# Source text: as §1, §2, §3
# [6] = ANTS/DPX liposome leakage assay, POPC vesicles; assay type: biochemical; settings: 0.5 mM vesicles; for Peptide Concentration-induced 50% ANTS/DPX leakage at pH 4.8, POPC Vesicle: pH 4.8, lipid per peptide; for Peptide Concentration-induced 50% ANTS/DPX leakage at pH 7.4, POPC Vesicle: pH 7.4, lipid per peptide
# Protocol: (§8) In brief, 0.5 mM POPC vesicles (grey) or POPC:POPG vesicles (ratio 3:1, black) were incubated with peptide concentrations of 0, 0.02, 0.04, 0.08, 0.16, 0.32, 0.64, 1.25, 2.5, 5, 10, and 20 μM in each A) hydrochloric acid-adjusted phosphate buffered saline (1×, pH 4.8) and B) phosphate buffered saline (1×, pH 7.4).
# as §5
# (§9) 5 mM ANTS (8-aminonaphthalene-1,3,6-trisulfonic acid, disodium salt) and 12.5 mM DPX (p-xylene-bis-pyridinium bromide) were entrapped in 0.1 μm diameter extruded vesicles with lipids. Gel filtration chromatography using a Sephadex G-100 (GE Healthcare Life Sciences Inc) was used to remove external free ANTS/DPX from LUVs with entrapped contents. LUVs were diluted to 0.5 mM and used to measure the leakage activity by addition of aliquots of peptides. Leakage was measured after 3 h incubation. 10% Triton was used as the positive control to measure the maximum leakage of the vesicle. Fluorescence emission spectra were recorded using excitation and emission wavelength of 350 nm and 510 nm for ANTS/DPX using a BioTek Synergy H1 Hybrid Multi-Mode Reader.
# (§10) Table 4 illustrates peptide concentration-induced 50% ANTS/DPX liposome leakage. 0.5 mM POPC and 3POPC/1POPG vesicles were fixed and incubated with titrated peptide concentration ([…]) each in phosphate buffered saline (1×, pH 7.4) and hydrochloric acid-adjusted phosphate buffered saline (1×, pH 4.8). The values are shown as lipid per peptide. †N-terminus is free, C-terminus: —W—NH2.
# [7] = ANTS/DPX liposome leakage assay, 3POPC/1POPG vesicles; assay type: biochemical; settings: 0.5 mM vesicles; for Peptide Concentration-induced 50% ANTS/DPX leakage at pH 4.8, 3POPC/1POPG Vesicle: pH 4.8, lipid per peptide; for Peptide Concentration-induced 50% ANTS/DPX leakage at pH 7.4, 3POPC/1POPG Vesicle: pH 7.4, lipid per peptide
# Protocol: as §8, §5, §9, §10
# [8] = Tryptophan fluorescent binding assay, 3POPC/1POPG vesicles; settings: 50 μM peptide, PBS pH 7.4, lipid per peptide
# Protocol: as §4, §5, §6, §7
SMILES,IC50 ([1]; 72 h),"Lipid Concentration-induced 50% Peptide Binding, POPC Vesicle [2]",IC50 ([3]; 72 h),IC50 ([4]; 72 h),IC50 ([5]; 72 h),"Peptide Concentration-induced 50% ANTS/DPX leakage at pH 4.8, POPC Vesicle [6]","Peptide Concentration-induced 50% ANTS/DPX leakage at pH 7.4, POPC Vesicle [6]","Peptide Concentration-induced 50% ANTS/DPX leakage at pH 4.8, 3POPC/1POPG Vesicle [7]","Peptide Concentration-induced 50% ANTS/DPX leakage at pH 7.4, 3POPC/1POPG Vesicle [7]","Lipid Concentration-induced 50% Peptide Binding, 3POPC/1POPG Vesicle [8]","IC50 ([1]; read-out: IC50 U20S, MTT, 72 hr)","IC50 ([3]; read-out: IC50 HMLER, MTT, 72 hr)","IC50 ([4]; read-out: IC50 HEK293T, MTT, 72 hr)","IC50 ([5]; read-out: IC50 HMLER-shEcad, MTT, 72 hr)"
CC(C)C[C@H](NC(=O)CN)C(=O)N[C@@H](CC(C)C)C(=O)N[C@@H](CC(=O)O)C(=O)N[C@@H](CC(C)C)C(=O)N[C@@H](CC(C)C)C(=O)N[C@@H](CCC(=O)O)C(=O)N[C@@H](CC(C)C)C(=O)N[C@@H](CC(C)C)C(=O)N[C@@H](CC(C)C)C(=O)N[C@@H](CCC(=O)O)C(=O)N[C@@H](C)C(=O)N[C@@H](C)C(=O)NCC(=O)N[C@@H](Cc1c[nH]c2ccccc12)C(N)=O [DEE],61 ± 1.41 µM,0.63 L/P,5.55 ± 0.35 µM,9.91 ± 0.44 µM,6.05 ± 2.76 µM,110 L/P,644 L/P,164 L/P,597 L/P,0.38 L/P,,,,
CC(C)C[C@H](NC(=O)CN)C(=O)N[C@@H](CC(C)C)C(=O)N[C@@H](CC(=O)O)C(=O)N[C@@H](CC(C)C)C(=O)N[C@@H](CC(C)C)C(=O)N[C@@H](CCC(=O)O)C(=O)N[C@@H](CC(C)C)C(=O)N[C@@H](CC(C)C)C(=O)N[C@@H](CC(C)C)C(=O)N[C@@H](Cc1c[nH]cn1)C(=O)N[C@@H](C)C(=O)N[C@@H](C)C(=O)NCC(=O)N[C@@H](Cc1c[nH]c2ccccc12)C(N)=O [DEH],36.5 ± 3.92 µM,0.75 L/P,5.35 ± 1.91 µM,10.5 ± 4.67 µM,3.6 ± 0.42 µM,63 L/P,620 L/P,193 L/P,548 L/P,1.50 L/P,,,,
CC(C)C[C@H](NC(=O)CN)C(=O)N[C@@H](CC(C)C)C(=O)N[C@@H](CC(=O)O)C(=O)N[C@@H](CC(C)C)C(=O)N[C@@H](CC(C)C)C(=O)N[C@@H](Cc1c[nH]cn1)C(=O)N[C@@H](CC(C)C)C(=O)N[C@@H](CC(C)C)C(=O)N[C@@H](CC(C)C)C(=O)N[C@@H](CCC(=O)O)C(=O)N[C@@H](C)C(=O)N[C@@H](C)C(=O)NCC(=O)N[C@@H](Cc1c[nH]c2ccccc12)C(N)=O [DHE],17.2 ± 1.06 µM,1.00 L/P,3.75 ± 0.92 µM,11.1 ± 1.91 µM,2.8 ± 0.14 µM,58 L/P,566 L/P,469 L/P,581 L/P,0.72 L/P,,,,
CC(C)C[C@H](NC(=O)CN)C(=O)N[C@@H](CC(C)C)C(=O)N[C@@H](CC(=O)O)C(=O)N[C@@H](CC(C)C)C(=O)N[C@@H](CC(C)C)C(=O)N[C@@H](Cc1c[nH]cn1)C(=O)N[C@@H](CC(C)C)C(=O)N[C@@H](CC(C)C)C(=O)N[C@@H](CC(C)C)C(=O)N[C@@H](Cc1c[nH]cn1)C(=O)N[C@@H](C)C(=O)N[C@@H](C)C(=O)NCC(=O)N[C@@H](Cc1c[nH]c2ccccc12)C(N)=O [DHH],55.9 ± 18.9 µM,0.67 L/P,21.4 ± 2.47 µM,6.4 ± 0.42 µM,11.9 ± 0.14 µM,106 L/P,684 L/P,98 L/P,692 L/P,0.28 L/P,,,,
CC(C)C[C@H](NC(=O)CN)C(=O)N[C@@H](CC(C)C)C(=O)N[C@@H](CC(=O)O)C(=O)N[C@@H](CC(C)C)C(=O)N[C@@H](CC(C)C)C(=O)N[C@@H](Cc1c[nH]cn1)C(=O)N[C@@H](CC(C)C)C(=O)N[C@@H](CC(C)C)C(=O)N[C@@H](CC(C)C)C(=O)N[C@@H](CCCCN)C(=O)N[C@@H](C)C(=O)N[C@@H](C)C(=O)NCC(=O)N[C@@H](Cc1c[nH]c2ccccc12)C(N)=O [DHK],,0.20 L/P,,,,47 L/P,747 L/P,183 L/P,469 L/P,0.38 L/P,20.4 ± 2.05 µM,1.75 ± 0.49 µM,7.3 ± 0.42 µM,1.02 ± 0.12 µM
CC(C)C[C@H](NC(=O)CN)C(=O)N[C@@H](CC(C)C)C(=O)N[C@@H](Cc1c[nH]cn1)C(=O)N[C@@H](CC(C)C)C(=O)N[C@@H](CC(C)C)C(=O)N[C@@H](CCC(=O)O)C(=O)N[C@@H](CC(C)C)C(=O)N[C@@H](CC(C)C)C(=O)N[C@@H](CC(C)C)C(=O)N[C@@H](CCCCN)C(=O)N[C@@H](C)C(=O)N[C@@H](C)C(=O)NCC(=O)N[C@@H](Cc1c[nH]c2ccccc12)C(N)=O [HEK],,0.44 L/P,2.35 ± 1.06 µM,6.95 ± 1.63 µM,3.45 ± 2.19 µM,97 L/P,755 L/P,41. L/P,386 L/P,0.46 L/P,,,,
